According to patent US6071919A, “Zwitterionic compositions and methods as biological response modifiers” (priority 1998, dated 2000):
Entries after “also recorded” stand apart in the source; their conditions may differ.

Tests used:
[1] = change of pKa per ° C.; cited from earlier work
[2] = Observations in HEPES-treated dogs; assay type: in vivo
[3] = tested on: gram negative staphylococci; assay: Example Twelve: MIC of antibiotics with and without HEPES, staphylococci; assay type: cell-based; conditions: agar gel cultures, colony counts of 10^6, with vs without HEPES
Procedure: (§1) Routine agar gel cultures are inoculated with beta-hemolytic streptococci and gram […] staphylococci. The cultures were raised to colony counts of 10^6. The mean inhibitory concentration (MIC) with susceptible antibiotics was measured with and without the presence of zwitterionic piperazine (HEPES).

[4] = Treatment of myasthenia gravis patients with HEPES alone; assay type: in vivo, human; conditions: 300 mg/kg to 1000 mg/kg daily
Procedure: (§2) To date, more than twenty-five patients have been treated with 300 mg/kg to 1000 mg/kg HEPES daily (no other agents or additional compositions).

cancer tumors = assay: Macrophage infiltration of tumors; assay type: in vivo, dogs
Source text: (§3) The amphoteric zwitterion compounds may be employed as active ingredients with other active ingredients, as well as other components and carriers typically used in pharmaceutical compositions; such as, but not limited to: buffers, stabilizers, dyes, antioxidants, dispersing agents, fillers, surfactants, silicones, bulking agents, pigments, salts, human or animal (natural or synthetic) cells and cellular components, antibiotics, drugs, vitamins, amino acids, proteins, serum and various other compounds and combinations thereof in varying amounts.

[5] = tested on: bone marrow / extramedullary hematopoiesis; assay: Bone marrow and extramedullary hematopoiesis, in vivo tests; design: species or system dogs and humans
Procedure: Further, the zwitterionic compounds reduce the mean inhibitory concentration (MIC) of susceptible […] in culture (in vitro) and enhances antibiotic activity in vivo. The zwitterionic compound may be used alone or with a carrier, such as sterile water or a saline solution. Enhancement and inducement of extramedullary hematopoiesis has been found in amounts of HEPES administered in an amount of about 18-20 mg/kilograms or greater for e.g. 40 mg/kg of body weight in dogs with daily intravenous injections over a defined time period of 1-2 weeks.

hepatitis B = assay: Example Eleven: patient with chronic hepatitis B infection; assay type: in vivo, human; conditions: 5000 mg i.v., after thirty days
Source text: After thirty days, their bilirubin fell to 3.0 and other liver enzymes were reduced by 25 percent or more.

[6] = Treatment of rheumatoid arthritis patients with HEPES alone; assay type: in vivo, human; conditions: 300 mg/kg to 1000 mg/kg daily
Procedure: as §2

[7] = tested on: beta-hemolytic streptococci; assay: Example Twelve: MIC of antibiotics with and without HEPES, streptococci; assay type: cell-based; conditions: agar gel cultures, colony counts of 10^6, with vs without HEPES
Procedure: as §1

[8] = cited from earlier work
[9] = Example Fifteen: patient with seizure disorder, EEG; assay type: in vivo, human; conditions: 5000 mg orally (2500 mg twice a day), two weeks
Procedure: A person with a longstanding history of seizure disorder was poorly controlled and had recurrent seizures while taking Dilantin and phenobarbital. They started on 5000 mg zwitterionic piperazine orally (2500 mg twice a day) for two weeks. […] The zwitterionic piperazine (HEPES) has membrane stabilizing properties, is effective for anti-arrhythmic therapy, and is effective anti-seizure therapy.

Herpes Zoster = assay: Example Nine: patient with painful Herpes Zoster; assay type: in vivo, human; conditions: 1000 mg i.v. daily
Procedure: A person with painful Herpes Zoster unresponsive to conventional treatment was given 1000 mg intravenously of zwitterionic piperazine daily.

[10] = Example Eight: patient with organophosphate induced polyneuropathy; assay type: in vivo, human
Procedure: A person with organophosphate induced polyneuropathy (such as found in Agent Orange toxicity and/or Gulf War Syndrome) had significant numbness in both legs, decreased sensation in both hands, and decreased proprioception was given 8 mg/kg orally of zwitterionic piperazine (HEPES) for two weeks.

[11] = tested on: serum alkaline phosphatase; assay: Example Six: serum alkaline phosphatase in healthy canines; assay type: in vivo, canine; conditions: up to 500 mg/kg, five canines
Procedure: Five healthy canines were administered up to 500 mg/kg of HEPES.

[12] = Antibiotic efficacy in vivo
alkaline phosphatase = assay: Decrease of alkaline phosphatase in mammals; assay type: in vivo
Source text: It is discovered that zwitterionic compounds, such as HEPES, decrease the production of alkaline phosphatase in mammals.

[13] = ADA: data of Schwarzenbach et al. (1955); cited from earlier work
[14] = ADA: data of Schwarzenbach et al. (1955); cited from earlier work; remark: listed apart in the source
cancer = assay: Treatment of cancer patients with HEPES alone; assay type: in vivo, human; conditions: 300 mg/kg to 1000 mg/kg daily
[15] = tested on: bone marrow / extramedullary hematopoiesis; assay: Example Seven: bone marrow and liver biopsy in healthy beagle dogs; assay type: in vivo; conditions: 18 mg/kg i.v. one week, then 40 mg/kg one week
Procedure: Five healthy beagle dogs (males and females) were given 18 mg/kg intravenously of zwitterionic piperazine compound (HEPES) for one week. The dose was increased to 40 mg/kg for one week. […] This is also consistent with immune stimulating effect.

[16] = tested on: acute hymphocytic leukemia (ALL); assay: Example Sixteen: patient with acute lymphocytic leukemia in blast crisis; assay type: in vivo, human; conditions: for Hemoglobin (Hgb): pre-infusion 10.5; for Blasts: pre-infusion 45%; for Platelets: pre-infusion 31,000; for White Blood Cells (WBC): pre-infusion 38,000
Source text: A person presented with acute hymphocytic leukemia (ALL).
They were started on zwitterionic piperazine therapy (HEPES).
Her baseline laboratory data was obtained following a blood transfusion before starting the HEPES;

[17] = tested on: giant platelets and histiocytes; assay: Giant platelets and histiocytes on peripheral smear; assay type: in vivo, animals; conditions: blood / peripheral smear
Source text: as §3

[18] = intravenous and oral application
[19] = 13.0 mg/kg I.V. increased to 80 mg/kg I.V.

Structure (SMILES): O=S(=O)(O)CCN1CCN(CCO)CC1 [HEPES, N-2 Hydroxyethylpiperazine-N'-2 Ethane Sulfonic Acid]
- αpKa /° C. [1]: -0.014
- behaviour following injections ([2]; all dogs): all dogs became calm following injections
- hematomas at the injection sites ([2]; all treated dogs): rapid resolution of hematomas at the injection sites
- diuresis ([2]; certain dosages): marked diuresis at certain dosages
- vascular integrity ([2]; treated groups): strong evidence of improved vascular integrity
- respiratory infections ([2]; while being treated, many in untreated group did): no animals in the treated group had any respiratory infections while being treated
- decrease in MIC of each antibiotic in culture (in vitro) [3]: more than 10%
- reduction in disease activity [4]: 25%-50%
- macrocytic invasion of tumors (cancer tumors; administered to mammals): macrocytic invasion of tumors
- macrophage infiltration of cancer tumors (cancer tumors; dogs): macrophage infiltration of cancer tumors in dogs
- minimal effective dose ([5]; Canis lupus familiaris, iv, dogs, daily i.v., 1-2 weeks, "or greater", read-out: amount of HEPES giving enhancement and inducement of extramedullary hematopoiesis): 18 to 20 mg/kg
- extramedullary hematopoiesis [5, 18]: induce extramedullary hematopoiesis in patients
- hypercellular bone marrow [5, 18]: induce hypercellular bone marrow
- reduction of other liver enzymes (hepatitis B): ≥ 25%
- bilirubin level (hepatitis B; baseline 5.0): 3.0
- reduction in disease activity [6]: 25%-50%
- decrease in MIC of each antibiotic in culture (in vitro) [7]: more than 10%
- Saturated Solution at 0° [8]: 2.25 M
- EEG focal activity [9]: significantly decreased focal activity
- pain (Herpes Zoster; second day): the pain had diminished, so that other analgesia was not required
- lesions (Herpes Zoster; seventh day): the lesions had healed
- pain (Herpes Zoster; seventh day): no pain at all
- lesions (Herpes Zoster; third day): the lesions had crusted and were clearly healing
- myelin integrity / organic phosphate induced polyneuropathy ([10]; 8 mg/kg orally): reversed the effect of organic phosphate induced polyneuropathy in the patient and restored myelin integrity
- sensation and proprioception ([10]; 8 mg/kg orally, end of two weeks): sensation and proprioception had returned
- sensation and proprioception after reinstatement ([10]; two weeks after reinstatement): sensation and proprioception were again restored
- symptoms after stopping the medicine ([10]; two weeks after stop): symptoms returned in two weeks
- serum alkaline phosphatase [11]: not detected by standard laboratory methods in all canines
- antibiotic efficacy in vivo [12]: enhanced the antibiotic efficacy in vivo
- fall of baseline alkaline phosphatase levels (alkaline phosphatase; in excess of 100 mg/kg to 500 mg/kg or greater): fall by a factor of two or greater
- alkaline phosphatase measurability (alkaline phosphatase; in excess of 100 mg/kg to 500 mg/kg or greater, some cases): not measurable by standard laboratory methods
- concentration at which decrease of alkaline phosphatase appears to start (alkaline phosphatase; mammals): approximately 12 mg/kg
- Metal-Buffer Binding Constants Log KM, Mg^2+ [13]: Negl
- Metal-Buffer Binding Constants Log KM, Cu^2+ [14]: Negl
- decrease in tumor volume and/or tumor activity (cancer; all patients with cancer): 25%-50%
- cancer pain response (cancer; all patients with cancer pain): All patients with cancer pain have responded with pain reduction
- circulating histiocytes and giant platelets ([15]; all animals): increase in circulating histiocytes and giant platelets
- bone marrow biopsy ([15]; all dogs): the bone marrow became hypercellular
- liver biopsy (extramedullary hematopoiesis) ([15]; all dogs): presence of megakaryocyte production consistent with induced extramedullary hematopoiesis
- blast crisis [16, 19]: cessation of the blasts crisis
- platelet destruction [16, 19]: Platelet destruction has ceased
- Hemoglobin (Hgb) ([16]; Day 3 of HEPES treatment): 8.5 g/dL
- Blasts ([16]; Day 3 of HEPES treatment): 45%
- Platelets ([16]; Day 3 of HEPES treatment): 14,000
- White Blood Cells (WBC) ([16]; Day 3 of HEPES treatment): 53,000
- Hemoglobin (Hgb) ([16]; Day 7 of HEPES treatment): 11.6 g/dL
- Blasts ([16]; Day 7 of HEPES treatment): 5.0%
- Platelets ([16]; Day 7 of HEPES treatment): 17,000
- White Blood Cells (WBC) ([16]; Day 7 of HEPES treatment): 6,300
- giant platelets and histiocytes [17]: production of giant platelets and histiocytes; also recorded: produces giant platelets and histiocytes in blood
